Starred links: 1 amine or outer side, 2 acyl side, 3 side chain; linkers in the order of their positions; H or OH if unused. Positions of bridges follow the written chain, without caps; N, C: chain ends. Non-standard residues stand in square brackets, D forms with d. Residues, ends and D or L forms follow the SMILES beside them. Trp(7-aza) = N[C@@H](Cc1c[nH]c2ncccc12)C(=O)O; mXylylene = c1cc(C[*:1])cc(C[*:2])c1; Phg = N[C@H](C(=O)O)c1ccccc1; Tle = CC(C)(C)[C@H](N)C(=O)O; NMeS = CN[C@@H](CO)C(=O)O; Nva = CCC[C@H](N)C(=O)O; Sar = CNCC(=O)O
Each molecule was assayed against C5 (Homo sapiens, UniProt P01031) (assay: Human hemolysis assay (RBC lysis assay using complete human sera)). Details: inhibition of lysis of antibody-sensitized sheep erythrocytes, complete human sera.
Chain of C5 (P01031 19-1676): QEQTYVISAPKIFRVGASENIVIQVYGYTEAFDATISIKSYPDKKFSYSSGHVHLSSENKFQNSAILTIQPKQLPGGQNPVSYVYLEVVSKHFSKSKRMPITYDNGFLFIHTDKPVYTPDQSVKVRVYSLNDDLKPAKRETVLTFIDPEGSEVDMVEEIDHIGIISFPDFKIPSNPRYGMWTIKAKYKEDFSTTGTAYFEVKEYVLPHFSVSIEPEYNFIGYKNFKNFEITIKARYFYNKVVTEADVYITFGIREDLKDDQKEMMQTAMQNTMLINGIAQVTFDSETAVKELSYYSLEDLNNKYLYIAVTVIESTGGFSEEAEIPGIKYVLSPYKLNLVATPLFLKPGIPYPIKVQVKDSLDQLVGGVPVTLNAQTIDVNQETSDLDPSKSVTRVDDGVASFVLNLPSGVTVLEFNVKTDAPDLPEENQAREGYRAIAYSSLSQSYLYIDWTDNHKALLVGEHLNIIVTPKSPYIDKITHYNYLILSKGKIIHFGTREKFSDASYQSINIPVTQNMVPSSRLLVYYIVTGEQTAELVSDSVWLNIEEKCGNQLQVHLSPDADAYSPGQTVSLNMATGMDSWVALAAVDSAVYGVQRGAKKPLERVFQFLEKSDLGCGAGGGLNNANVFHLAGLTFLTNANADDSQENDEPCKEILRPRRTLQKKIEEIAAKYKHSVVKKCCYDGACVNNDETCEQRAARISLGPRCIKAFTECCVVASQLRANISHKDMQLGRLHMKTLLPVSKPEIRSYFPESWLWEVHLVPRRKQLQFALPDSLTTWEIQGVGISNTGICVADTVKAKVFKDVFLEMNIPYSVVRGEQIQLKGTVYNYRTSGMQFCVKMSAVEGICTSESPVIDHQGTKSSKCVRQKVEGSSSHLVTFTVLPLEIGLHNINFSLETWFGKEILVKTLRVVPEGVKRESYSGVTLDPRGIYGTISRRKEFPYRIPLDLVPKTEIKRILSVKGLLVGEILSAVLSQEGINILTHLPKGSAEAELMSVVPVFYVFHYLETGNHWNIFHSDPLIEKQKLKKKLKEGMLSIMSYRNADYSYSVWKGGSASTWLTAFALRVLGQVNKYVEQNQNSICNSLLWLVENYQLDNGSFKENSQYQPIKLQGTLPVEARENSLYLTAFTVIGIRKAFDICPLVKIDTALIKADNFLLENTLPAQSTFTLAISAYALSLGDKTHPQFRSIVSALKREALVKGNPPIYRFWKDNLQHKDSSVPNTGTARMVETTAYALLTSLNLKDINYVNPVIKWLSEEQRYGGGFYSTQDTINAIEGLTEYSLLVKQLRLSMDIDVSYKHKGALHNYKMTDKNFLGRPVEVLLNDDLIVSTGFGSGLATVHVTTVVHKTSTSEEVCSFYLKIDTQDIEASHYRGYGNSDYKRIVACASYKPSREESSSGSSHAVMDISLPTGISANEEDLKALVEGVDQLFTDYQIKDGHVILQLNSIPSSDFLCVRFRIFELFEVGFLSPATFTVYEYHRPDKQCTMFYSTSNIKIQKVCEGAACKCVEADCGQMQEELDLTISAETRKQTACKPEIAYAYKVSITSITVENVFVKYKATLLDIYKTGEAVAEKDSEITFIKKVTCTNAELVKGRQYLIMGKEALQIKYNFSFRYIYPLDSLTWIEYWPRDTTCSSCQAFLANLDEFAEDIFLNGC
Assay type: cell-based
Design: with complete human sera (Complement Technology, Tyler Tex.) and polypeptides; tissue Complement Technology, Tyler Tex; host or cells: complete human serum

| SMILES | IC50 [nM] |
| --- | --- |
| CCC[C@H](NC(C)=O)C(=O)N[C@@H](CS)C(=O)N[C@@H](Cc1ccc(O)cc1)C(=O)N[C@@H](CCCCN)C(=O)N[C@@H](CC(N)=O)C(=O)N[C@@H](Cc1ccc(O)cc1)C(=O)N[C@@H](Cc1c[nH]cn1)C(=O)N[C@@H](Cc1c[nH]c2ncccc12)C(=O)N[C@@H](CCC(=O)O)C(=O)N[C@@H](Cc1ccc(O)cc1)C(=O)N1CCC[C@H]1C(=O)N[C@H](C(=O)N[C@@H](Cc1ccc(O)cc1)C(N)=O)C(C)(C)C [Compound R3000, Ac-Nvl-C-Y-K-N-Y-H-azaTrp-E-Y-P-Tbg-Y-NH2] (Ac-[Nva]CYKNYH[Trp(7-aza)]EYP[Tle]Y-NH2) | > 10000 |
| CCC[C@H](NC(C)=O)C(=O)N[C@@H](CS)C(=O)N[C@@H](Cc1ccc(O)cc1)C(=O)N[C@@H](CCC(=O)O)C(=O)N[C@@H](CC(N)=O)C(=O)N[C@H](C(=O)N[C@@H](Cc1ccc(O)cc1)C(=O)N[C@@H](Cc1c[nH]c2ncccc12)C(=O)N[C@@H](CCC(=O)O)C(=O)N[C@@H](Cc1ccc(O)cc1)C(=O)N(C)CC(=O)N[C@@H](CCC)C(=O)N(C)[C@@H](CO)C(N)=O)C(C)(C)C [Compound R3001, Ac-Nvl-C-Y-E-N-Tbg-Y-azaTrp-E-Y-(N-Me)G-Nvl-(N-Me)S-NH2] (Ac-[Nva]CYEN[Tle]Y[Trp(7-aza)]EY[Sar][Nva][NMeS]-NH2) | 67.2 |
| CCC[C@H](NC(C)=O)C(=O)N[C@@H](CS)C(=O)N[C@@H](Cc1ccc(O)cc1)C(=O)N[C@@H](CC(N)=O)C(=O)N[C@@H](CC(N)=O)C(=O)N[C@H](C(=O)N[C@@H](CCC(=O)O)C(=O)N[C@@H](Cc1c[nH]c2ncccc12)C(=O)N[C@@H](CCC(=O)O)C(=O)N[C@@H](Cc1ccc(O)cc1)C(=O)N1CCC[C@H]1C(=O)N[C@H](C(=O)N[C@H](C(N)=O)C(C)(C)C)c1ccccc1)C(C)(C)C [Compound R3004, Ac-Nvl-C-Y-N-N-Tbg-E-azaTrp-E-Y-P-Phg-Tbg-NH2] (Ac-[Nva]CYNN[Tle]E[Trp(7-aza)]EYP[Phg][Tle]-NH2) | 53.5 |
| CCC[C@H](NC(C)=O)C(=O)N[C@@H](CS)C(=O)N[C@@H](Cc1ccc(O)cc1)C(=O)N[C@@H](Cc1c[nH]c2ncccc12)C(=O)N(C)CC(=O)N[C@H](C(=O)N[C@@H](CCC)C(=O)N[C@@H](Cc1c[nH]c2ncccc12)C(=O)N[C@@H](CCC(=O)O)C(=O)N[C@@H](Cc1ccc(O)cc1)C(=O)N1CCC[C@H]1C(=O)N[C@H](C(=O)N1CCC[C@H]1C(N)=O)c1ccccc1)C(C)(C)C [Compound R3005, Ac-Nvl-C-Y-azaTrp-(N-Me)G-Tbg-Nvl-azaTrp-E-Y-P-Phg-P-NH2] (Ac-[Nva]CY[Trp(7-aza)][Sar][Tle][Nva][Trp(7-aza)]EYP[Phg]P-NH2) | 66.7 |
| CCC[C@H](NC(=O)CN(C)C(=O)[C@H](Cc1ccc(O)cc1)NC(=O)[C@H](CCC(=O)O)NC(=O)[C@H](Cc1c[nH]c2ncccc12)NC(=O)[C@H](Cc1ccc(O)cc1)NC(=O)[C@@H](NC(=O)[C@H](CC(N)=O)NC(=O)[C@H](CCC(=O)O)NC(=O)[C@H](Cc1ccc(O)cc1)NC(C)=O)C(C)(C)C)C(=O)N(C)[C@@H](CO)C(N)=O [Compound R3006, Ac-Y-E-N-Tbg-Y-azaTrp-E-Y-(N-Me)G-Nvl-(N-Me)S-NH2] (Ac-YEN[Tle]Y[Trp(7-aza)]EY[Sar][Nva][NMeS]-NH2) | 267 |
| CCC[C@H](NC(C)=O)C(=O)N[C@H]1CSCc2cccc(c2)CSC[C@@H](C(=O)N(C)[C@@H](CO)C(=O)N[C@H](C(=O)N[C@@H](CCCCN)C(=O)N[C@@H](Cc2c[nH]c3ncccc23)C(=O)N[C@@H](CCC(=O)O)C(=O)N[C@@H](Cc2ccc(O)cc2)C(N)=O)C(C)(C)C)NC(=O)[C@H](Cc2ccc(O)cc2)NC(=O)[C@H](c2ccccc2)NC(=O)[C@H](CCC(=O)O)NC(=O)[C@H](CCCCN)NC1=O [Compound R3007, [mXylyl(2,7)]Ac-Nvl-C-K-E-Pbg-Y-C-(N-Me)S-Tbg-K-azaTrp-E-Y-NH2] (Ac-[Nva]CKE[Phg]YC[NMeS][Tle]K[Trp(7-aza)]EY-NH2; linker 2-7 via mXylylene) | 314 |
| CCC[C@H](NC(=O)[C@@H]1CCCN1C(=O)[C@H](CCC)NC(=O)[C@@H]1CSCc2cccc(c2)CSC[C@H](NC(=O)[C@H](CCC)NC(C)=O)C(=O)N[C@@H](Cc2ccc(O)cc2)C(=O)N[C@@H](CCC(=O)O)C(=O)N(C)CC(=O)N[C@@H](C(C)(C)C)C(=O)N[C@@H](Cc2ccc(O)cc2)C(=O)N[C@@H](Cc2c[nH]c3ncccc23)C(=O)N[C@@H](CCC(=O)O)C(=O)N1)C(N)=O [Compound R3009, [mXylyl(2,10)]Ac-Nvl-C-Y-E-(N-Me)G-Tbg-Y-azaTrp-E-C-Nvl-P-Nvl-NH2] (Ac-[Nva]CYE[Sar][Tle]Y[Trp(7-aza)]EC[Nva]P[Nva]-NH2; linker 2-10 via mXylylene) | > 100000 |
| CCC[C@H](NC(C)=O)C(=O)N[C@H]1CSCc2cccc(c2)CSC[C@@H](C(N)=O)NC(=O)[C@@H]2CCCN2C(=O)[C@H](CCC)NC(=O)[C@H](CCC)NC(=O)[C@H](CCC(=O)O)NC(=O)[C@H](Cc2c[nH]c3ncccc23)NC(=O)[C@H](Cc2ccc(O)cc2)NC(=O)[C@H](C(C)(C)C)NC(=O)CN(C)C(=O)[C@H](CCC(=O)O)NC(=O)[C@H](Cc2ccc(O)cc2)NC1=O [Compound R3010, [mXylyl(2,13)]Ac-Nvl-C-Y-E-(N-Me)G-Tbg-Y-azaTrp-E-Nvl-Nvl-P-C-NH2] (Ac-[Nva]CYE[Sar][Tle]Y[Trp(7-aza)]E[Nva][Nva]PC-NH2; linker 2-13 via mXylylene) | > 100000 |
| CCC[C@H](NC(=O)[C@@H]1CSCc2cccc(c2)CSC[C@H](NC(=O)[C@H](CCC)NC(C)=O)C(=O)N[C@@H](c2ccccc2)C(=O)N[C@@H]([C@@H](C)O)C(=O)N[C@@H](Cc2c[nH]c3ncccc23)C(=O)N[C@@H](CCC(=O)O)C(=O)N[C@@H](Cc2ccc(O)cc2)C(=O)N(C)[C@@H](CO)C(=O)N[C@@H](Cc2c[nH]cn2)C(=O)N1)C(N)=O [Compound R3012, [mXylyl(2,10)]Ac-Nvl-C-Phg-T-azaTrp-E-Y-(N-Me)S-H-C-Nvl-NH2] (Ac-[Nva]C[Phg]T[Trp(7-aza)]EY[NMeS]HC[Nva]-NH2; linker 2-10 via mXylylene) | 148 |
| CCC[C@H](NC(C)=O)C(=O)N[C@H]1CSCc2cccc(c2)CSC[C@@H](C(N)=O)NC(=O)[C@H](Cc2c[nH]cn2)NC(=O)[C@H](CO)N(C)C(=O)[C@H](Cc2ccc(O)cc2)NC(=O)[C@H](CCC(=O)O)NC(=O)[C@H](Cc2c[nH]c3ncccc23)NC(=O)[C@H]([C@@H](C)O)NC(=O)[C@H](c2ccccc2)NC1=O [Compound R3013, [mXyly1(2,10)]Ac-Nvl-C-Phg-T-azaTrp-E-Y-(N-Me)S-H-C-NH2] (Ac-[Nva]C[Phg]T[Trp(7-aza)]EY[NMeS]HC-NH2; linker 2-10 via mXylylene) | 344 |
| CC(=O)N[C@H]1CSCc2cccc(c2)CSC[C@@H](C(N)=O)NC(=O)[C@H](Cc2c[nH]cn2)NC(=O)[C@H](CO)N(C)C(=O)[C@H](Cc2ccc(O)cc2)NC(=O)[C@H](CCC(=O)O)NC(=O)[C@H](Cc2c[nH]c3ncccc23)NC(=O)[C@H](Cc2ccc(O)cc2)NC(=O)[C@H](C(C)(C)C)NC1=O [Compound R3016, [mXylyl(1,9)]Ac-C-Tbg-Y-azaTrp-E-Y-(N-Me)S-H-C-NH2] (Ac-C[Tle]Y[Trp(7-aza)]EY[NMeS]HC-NH2; linker 1-9 via mXylylene) | > 13000 |
